Reference: patent US20130004481A1, “ANTICANCER THERAPY” (BOEHRINGER INGELHEIM INTERNATIONAL GMBH, priority 2011, published 2013)

Target: T1, wild type (wt)-Xenopus laevis Aurora B/INCENP complex (Xenopus laevis, UniProt Q6DE08)
T1 construct: Purified (wt)-Xenopus laevis Aurora B^60-361/INCENP^790-847 complex was stored at −80° C; GST (cleaved yes); made in house; host or cells: E. coli BL21(DE3) with pUBS520 helper plasmid
Assay: Radioactive kinase assay using wt Xenopus laevis Aurora B/INCENP complex
Type: biochemical
Conditions: 100 μM ATP
Protocol: Radioactive Kinase Assay Using a Wild Type (wt)-Xenopus laevis Aurora B/INCENP Complex:
The kinase assays are run in the presence of 100 μM ATP using 10 μM of a substrate peptide. pAUB-IN847 was used to transform the E. coli strain BL21(DE3) containing the pUBS520 helper plasmid. Both proteins and their mutants are expressed and purified under essentially identical conditions. Protein expression is induced with 0.3 mM IPTG at an OD600 of 0.45-0.7. Expression is then continued for about 12-16 hours at 23-25° C. with agitation. […] 20-30 ml lysis buffer are used per liter of E. coli culture. Cells are lysed by sonication, and the lysates cleared by centrifugation at 12000 rpm for 45-60 min on a JA20 rotor. The supernatants are incubated with 300 μl of GST Sepharose Fast Flow (Amersham Biosciences) per liter of bacterial culture. The resin is first washed with PBS buffer and finally equilibrated with lysis buffer. After a 4-5 hour agitation at 4° C., the beads are washed with 30 volumes of lysis buffer, and then equilibrated with 30 volumes of cleavage buffer (50 mM Tris pH 7.6, 150 mM NaCl, 1 mM DTT, 1 mM EDTA). To cleave the GST from Aurora B, 10 units of Prescission protease (Amersham Biosciences) per milligram of substrate are added and the incubation is protracted for 16 hours at 4° C. The supernatant, which contains the cleaved product, is collected and loaded onto a 6 ml Resource Q column (Amersham Biosciences) equilibrated with Ion Exchange buffer (50 mM Tris pH 7.6, 150 mM NaCl, 1 mM DTT, 1 mM EDTA). The Aurora B/INCENP complex is collected in the flow through of the column. The flow-through of the Resource Q column is concentrated and loaded onto a Superdex 200 size-exclusion chromatography (SEC) column equilibrated with SEC buffer (Tris HCl 10 mM pH 7.6, NaCl 150 mM, DTT 1 mM, EDTA 1 mM). […] The final yield is about 1-2 mg of pure complex per liter of bacteria.
Assay conditions: Enzyme activity was assayed in the presence or absence of serial inhibitor dilutions.
Data analysis: Inhibitor concentrations were transformed to logarithmic values and the raw data were normalized. These normalized values were used to calculate the IC50 values. […] Each microtiter plate contained internal controls, such as blank, maximum reaction and historical reference compound.

T1 sequence (Q6DE08 60-361): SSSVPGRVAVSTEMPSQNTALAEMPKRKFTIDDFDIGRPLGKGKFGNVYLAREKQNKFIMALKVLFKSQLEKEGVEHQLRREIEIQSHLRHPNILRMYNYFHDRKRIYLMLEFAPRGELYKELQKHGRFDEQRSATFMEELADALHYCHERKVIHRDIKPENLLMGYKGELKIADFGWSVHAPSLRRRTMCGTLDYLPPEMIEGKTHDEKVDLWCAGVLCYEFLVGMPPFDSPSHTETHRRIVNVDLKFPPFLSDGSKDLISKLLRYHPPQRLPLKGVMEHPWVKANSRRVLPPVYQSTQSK
T1 sequence (O13024 790-847 partner limits assumed): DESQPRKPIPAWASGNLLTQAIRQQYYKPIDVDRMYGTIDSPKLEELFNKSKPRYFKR

Structure (SMILES) | IC50 [nM]
CCNC(=O)C#Cc1ccc2c(c1)NC(=O)/C2=C(\Nc1ccc(N2CCN(C)CC2)cc1)c1ccccc1 [Compound 1, N-ethyl-3-[3-[[4-(4-methylpiperazin-1-yl)anilino]-phenylmethylidene]-2-oxo-1H-indol-6-yl]prop-2-ynamide] | 2
CN(C)Cc1ccc(N/C(=C2\C(=O)Nc3cc(C#CC(=O)NCC(F)F)ccc32)c2ccccc2)cc1 [Compound 2, N-(2,2-difluoroethyl)-3-[3-[[4-(dimethylaminomethyl)anilino]-phenylmethylidene]-2-oxo-1H-indol-6-yl]prop-2-ynamide] | 7
O=C(C#Cc1ccc2c(c1)NC(=O)/C2=C(\Nc1ccc(CN2CCCC2)cc1)c1ccccc1)NCC(F)F [Compound 3, N-(2,2-difluoroethyl)-3-[2-oxo-3-[phenyl-[4-(pyrrolidin-1-ylmethyl)anilino]methylidene]-1H-indol-6-yl]prop-2-ynamide] | 4
O=C(C#Cc1ccc2c(c1)NC(=O)/C2=C(\Nc1ccc(CN2CCCC2)cc1)c1ccccc1)NCCF [Compound 4, N-(2-fluoroethyl)-3-[2-oxo-3-[phenyl-[4-(pyrrolidin-1-ylmethyl)anilino]methylidene]-1H-indol-6-yl]prop-2-ynamide] | 5
CCNC(=O)C#Cc1ccc2c(c1)NC(=O)/C2=C(\Nc1ccc(CN(C)C)cc1)c1ccccc1 [Compound 6, 3-[3-[[4-(dimethylaminomethyl)anilino]-phenylmethylidene]-2-oxo-1H-indol-6-yl]-N-ethylprop-2-ynamide] | 3
